{"source": "patent US20240196931A1", "about": "“BOTANICAL SUPPLEMENT AND METHOD FOR PREVENTING DISEASES, PROMOTING GROWTH AND SURVIVAL OF AN ANIMAL BY USING THE SAME” (ACADEMIA SINICA, priority 2022, published 2024)", "origin": "cited, not measured here", "key": {"sepsis": {"tested_on": "sepsis", "conditions": "sepsis induced by endotoxin or cecal ligation puncture"}, "[1]": {"tested_on": "melanoma and breast cancer cell metastasis", "conditions": "in vitro and in xenograft or allograft mouse tumor models"}}, "data": [{"smiles": "CC/C=C\\C/C=C\\C/C=C\\CCCCCCCC(=O)OC[C@H](CO[C@@H]1O[C@H](CO)[C@H](O)[C@H](O)[C@H]1O)OC(=O)CCCCCCC/C=C\\C/C=C\\C/C=C\\CC", "note": "[dLGG, 1,2-di-O-α-linolenoyl-3-O-β-galactopyranosyl-sn-glycerol]", "values": [{"measurement": "Effect against sepsis in mouse", "setting": "sepsis", "value": "preventive and therapeutic effect"}, {"measurement": "Effect on melanoma and breast cancer cell metastasis", "setting": "[1]", "value": "suppressive effects"}]}]}
